What was measured:
[1] = target: T1, FUT6 (Homo sapiens, UniProt P51993); assay: Fluorescent labeling with fluorophore-conjugated fucose by FUT6; type: biochemical; design: key: +++: indicated by number of + signs; ++: indicated by number of + signs; indicated by number of + signs; conditions: fluorophore-conjugated fucose donor; acceptor GlcNAc of lactosamine, sialylation on terminal Gal is flexible; FIG. 9
T1 sequence (P51993 1-359): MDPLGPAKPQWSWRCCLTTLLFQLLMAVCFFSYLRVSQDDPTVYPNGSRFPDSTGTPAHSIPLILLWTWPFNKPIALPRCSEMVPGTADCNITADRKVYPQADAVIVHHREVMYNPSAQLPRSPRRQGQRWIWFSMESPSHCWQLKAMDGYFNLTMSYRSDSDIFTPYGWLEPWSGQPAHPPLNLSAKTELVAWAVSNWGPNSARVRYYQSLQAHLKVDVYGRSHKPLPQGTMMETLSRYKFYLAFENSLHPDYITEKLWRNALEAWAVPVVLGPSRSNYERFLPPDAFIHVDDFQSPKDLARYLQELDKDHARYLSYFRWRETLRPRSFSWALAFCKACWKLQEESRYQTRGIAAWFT
Protocol: (§1) FIG. 9A-FIG. 9B show exemplary results of probing substrate glycans of various fucosyltransferases on fetuin and asialofetuin. FIG. 9A. Probing substrate glycans of fucosyltransferases with guanosine 5′-diphosphate activated Cy5 conjugated fucose (GDP-Cy5-Fuc). […] FUT9 labeled itself (indicated by an arrow in the gel). FIG. 9B. Tolerance of Alexa-Fluor®555 (555), Alexa-Fluor®488 (488), and Cy5 by the indicated fucosyltransferases. All reactions were incubated at 37° C. for 30 minutes and then separated on SDS-PAGE and imaged with silver staining (upper panels) and fluorescent imager (lower panels). M, molecular marker.
(§2) For a typical labeling reaction, 1 μg to 5 μg target protein was mixed with 0.2 nmol GDP-f-Fuc and 0.2 μg of a fucosyltransferase in 30 μL buffer of 25 mM Tris pH 7.5, 10 mM MnCl2. The mixture was incubated at 37° C. for 30 minutes. The reaction was then separated by sodium dodecyl sulfate—polyacrylamide gel electrophoresis (SDS-PAGE) and the gel was directly imaged using a fluorescent imager FluorChem M ProteinSimple, Bio-Techne, Minneapolis, MN), followed by imaging with traditional protein imaging methods such as silver staining or trichloroethanol (TCE) staining.
(§3) The four enzymes tolerated the three fluorophores to different levels.

[2] = target: T2, FUT9 (Homo sapiens, UniProt Q9Y231); assay: Fluorescent labeling with fluorophore-conjugated fucose by FUT9; type: biochemical; design: key to Tolerance of the fluorophore by FUT9: +++: indicated by number of + signs; ++: indicated by number of + signs; indicated by number of + signs; conditions: for Tolerance of the fluorophore by FUT9: fluorophore-conjugated fucose donor, acceptor GlcNAc of lactosamine, FIG. 9
T2 construct: purchased Bio-Techne (Minneapolis, MN)
T2 sequence (Q9Y231 1-359): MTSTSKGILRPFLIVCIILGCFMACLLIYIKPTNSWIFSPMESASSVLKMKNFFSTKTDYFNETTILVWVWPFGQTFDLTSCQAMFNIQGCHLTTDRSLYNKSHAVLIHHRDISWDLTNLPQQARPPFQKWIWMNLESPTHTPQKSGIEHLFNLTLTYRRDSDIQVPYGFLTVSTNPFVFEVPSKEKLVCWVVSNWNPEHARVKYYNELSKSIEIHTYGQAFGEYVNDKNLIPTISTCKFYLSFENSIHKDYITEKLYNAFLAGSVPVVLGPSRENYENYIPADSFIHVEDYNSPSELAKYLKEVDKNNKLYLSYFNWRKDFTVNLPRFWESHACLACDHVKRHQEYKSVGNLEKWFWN
Protocol: as §1
FIG. 10A-FIG. 10D show exemplary results of probing core-6 fucosylation on antibodies by FUT8 incorporation of fluorophores. FIG. 10A. Results of probing substrate glycans of FUT8 (F8) and FUT9 (F9) on Cantuzumab, an anti-Muc1 therapeutic antibody, and NIST reference mAb 8671 using guanosine 5′-diphosphate activated Alexa-Fluor®555 conjugated fucose (GDP-AF555-Fuc) (555), GDP-Cy5-fucose (Cy5), and guanosine 5′-diphosphate activated Alexa-Fluor®488 conjugated fucose (GDP-AF488-Fuc) (488) as donor substrates. Cantuzumab was expressed in FUT8 knockout cells and is devoid of core-6 fucose. Molecular marker (MM) is a prestained Western molecular marker (Bio-Rad Laboratories, Hercules, CA). […] The product of each reaction was separated using SDS-PAGE and imaged with trichloroethanol (TCE) staining (upper panel) and fluorescent imager (lower panel). Labeling on the light chains of the antibodies by Alexa-Fluor®555 is likely the result of non-specific staining due to the use of unpurified GDP-AF555-Fuc that contained free Alexa-Fluor®555. FIG. 10B. […] FIG. 10C. […] FIG. 10D. Schematics of the glycan structures analyzed in FIG. 10B and FIG. 10C.
Mouse IgG (R&D Systems, Minneapolis, MN) was digested with Endo S thoroughly and labeled with 0.3 μg of FUT9 and 0.2 nmol of GDP-Cy5-Fuc in 30 μl at 37° C. for the indicated time points. The glycans were also pretreated with B4GalT2 for 5 minutes at 37° C. and then labeled in the same way. The reactions were separated on 15% SDS PAGE. B4GalT2 pretreatment converted all G1′ to G2′. Maximal labeling on G1′ and G2′ were achieved around 30 minutes. […] The heavy chain (HC) and light chain (LC) were visible in the TCE image. M, Western blot marker (Bio-Rad Laboratories, Hercules, CA).
as §2, §3

| Substance | Tolerance of the fluorophore by FUT6 [1] | Tolerance of the fluorophore by FUT9 [2] | Fluorophore preference of FUT9 ([2]; among Cy5-, AlexaFluor® 488-, and AlexaFluor® 555-conjugated fucoses, FIG. 9B) |
| --- | --- | --- | --- |
| guanosine 5′-diphosphate activated Alexa-Fluor®488 conjugated fucose [GDP-AF488-Fuc] | ++ | +++ |  |
| guanosine 5′-diphosphate activated Alexa-Fluor®555 conjugated fucose [GDP-AF555-Fuc] | ++ | +++ | preferred |

Reference: US20240168030A1, “DIRECT FLUORESCENT GLYCAN LABELING” (BIO-TECHNE CORPORATION, priority 2019, published 2024)
